# Patent publication US6391873B1, “Imidazodiazepine derivative” (priority 1999, dated 2002)
# Assays:
# [1] = system: mice; experiment: fatalities after i.v. administration in mice (rotarod test); type: in vivo, mouse; settings: up to 100 mg/kg i.v.
# [2] = system: cytochrome P450 isoenzymes; experiment: inhibition of cytochrome P450 isoenzymes
# [3] = system: mice; experiment: ethanol interaction in mice
# [4] = target: benzodiazepine receptors; experiment: 3H-flumazenil in vitro binding assay using homogenized rat cortex; settings: inhibition of binding of tritiated flumazenil
# Method: The preclinical pharmacological profile of the compound of the present invention for treatment of anxiety disorders, and/or treatment of convulsions and/or non-sedative treatment of sleep disorders involves no, or only minimal motor impairment, in a standard test of motor performance in animals (e.g. rotarod test in mice with motor function evaluated in the same animals at different time points up to 1 hour after intravenous injection).
# The affinity of the compound of the invention to the central benzodiazepine receptors was established in vitro according to the methods described in Nature 294, 763-765 (1981) and J. Neurochemistry 37, 714-722 (1981). According to these methods, the inhibition of the binding of tritiated flumazenil to the specific benzodiazepine receptors in the cortex of rats by the respective test substance is determined. The affinity was calculated as pKi (for background information on pKi see: Cheng, Y. and W. H. Prusoff, Relationship between the inhibition constant (Ki) and the concentration of inhibitor which causes 50 percent inhibition (IC50) of an enzymatic reaction. Biochem. Pharmac. 22: 3099-3108, 1973) as the measure of the specific binding of tritiated flumazenil to specific benzodiazepine receptors in the cortex of rat.
# [5] = system: animals; experiment: anticonvulsant effects in animals; type: in vivo; settings: low doses
# [6] = system: rats; experiment: cognitive impairment in rats
# [7] = system: mice; experiment: mouse operant conflict model of anxiety; settings: oral bolus circa 30 min prior to conflict test; punished responding
# [8] = system: mice; experiment: tolerance of the anxiolytic effect in mice after chronic treatment
# [9] = system: mice; experiment: withdrawal signs in chronically treated mice challenged with a benzodiazepine receptor antagonist; settings: chronically treated mice challenged with benzodiazepine receptor antagonist (e.g., sarmazenil)
# [10] = system: mice; experiment: rotating rod test (rotarod test), motor impairment; type: in vivo, mouse; settings: for ED50 for a rotarod deficit: consistently at different time points up to 1 hour after intravenous injection
# Method: The motor impairing properties of the compound of the invention can be determined, for example, in the rotating rod test (rotarod test). […] These mice were housed in Macrolon® type I cages for one or more days following arrival in the laboratory colony (12:12 hour light-dark cycle). They have free access to a standard rodent diet (Kliba Mühlen, Kaiseraugst, Switzerland) and tap water in the home cage up to testing. They are brought into the test laboratory at least 30 min before the test which was done during the light portion of the day-night cycle. In the rotating rod test the animals are placed on a horizontally arranged, smooth metal rod having a diameter of 3 cm, which is rotated at 2 revolutions per min. Initially, the animals are given the opportunity of familiarizing themselves with the test situation for at least 30 sec. Subsequently, those animals which succeed in remaining on the rod for at least 1 min are selected for use in the test. These selected animals are then given the test preparations intravenously in different dosages. At various points in time post-injection, it is then determined whether the animals are able to remain wallking on the rod for a minimum period (minimum period of 10 sec at time points 15 sec. 30 sec. 1 min and 2 min; minimum period of 1 min at time points 5 min, 15 min, 30 min, 60 min). The dosage at which 50% of the animals are capable of remaining on the rod (i.e., ED50) was determined at each of these time points.
# [11] = system: rats; experiment: fatalities after i.v. administration in rats; type: in vivo; settings: 100 mg/kg i.v.
structure (smiles),measurement,setting,value
"CN(C)Cc1nc(-c2ncn3c2CN(C)C(=O)c2c(Cl)cccc2-3)no1 [compound of the invention, 7-Chloro-3-(5-dimethylaminomethyl-[1,2,4]oxadiazol-3-yl)-5-methyl-4,5-dihydro-imidazo[1,5-a][1,4]benzodiazepin-6-one]",fatalities,[1],without fatalities occurring
same,inhibition of cytochrome P450 isoenzymes,[2],minimal or no inhibition
same,ethanol interaction,[3],low ethanol interaction
same,Affinity to benzodiazepine receptors,[4],9.1
same,anticonvulsant effects,[5],show anticonvulsant effects
same,cognitive impairment,[6],minimal cognitive impairment
same,minimum effective dose (statistically significant anxiolytic-like effect),[7],3 mg/kg p.o.
same,reduction (so-called tolerance) of the anxiolytic effect,[8],minimal reduction
same,withdrawal signs,[9],minimal withdrawal signs
same,Rotating rod test ED50,[10]; 15 sec after administration,>10 mg/kg i.v.
same,Rotating rod test ED50,[10]; 20 sec after administration,>10 mg/kg i.v.
same,Rotating rod test ED50,[10]; 60 sec after administration,>10 mg/kg i.v.
same,Rotating rod test ED50,[10]; 2 min after administration,>10 mg/kg i.v.
same,Rotating rod test ED50,[10]; 5 min after administration,>10 mg/kg i.v.
same,Rotating rod test ED50,[10]; 15 min after administration,>10 mg/kg i.v.
same,Rotating rod test ED50,[10]; 30 min after administration,>10 mg/kg i.v.
same,Rotating rod test ED50,[10]; 60 min after administration,>10 mg/kg i.v.
same,ED50 for a rotarod deficit,[10],> 10 mg/kg i.v.
same,ED50 for a rotarod deficit,[10]; listed as compound of the present invention,greater than 10 mg/kg i.v.
same,fatalities,[11],without fatalities occurring
